Laboratory results as given in patent US20240285557A1, “PHARMACEUTICAL COMPOSITION COMPRISING LIPASE INHIBITOR FOR TREATMENT OR TREATMENT OF RNA VIRAL INFECTIONS” (priority 2021, published 2024).
Where “and” joins values, the source holds several entries; their conditions need not be identical. Equal values may be shown once. Read-outs that look alike come from different tables or passages of the source.

Assays:
[1] = tested on: SARS-COV-2, IAV, BCOV, PEDV, RVA, PRRSV, and PSaV; test: Viral genome copy (real-time PCR) and progeny virus production in cells infected with seven RNA viruses; assay type: cell-based; details: 1, 10, and 20 μM; dose-dependent, all seven viruses
Description: Subsequently, each well was washed three times with phosphate-buffered saline, followed by the addition of the respective viral culture media.
Subsequently, each plate underwent three cycles of freezing and thawing to detach the cells from each well for subsequent experiments.
To analyze the inhibitory effects of atglistatin and CAY10499 on the genome copies of each virus, RNA was extracted using the RNeasy mini kit (Qiagen). The extracted RNA was then used to synthesize cDNA using the TOPscript™ cDNA Synthesis kit (Enzynomics), which includes random hexamer and poly(rA)-oligo(dT). Afterward, real-time PCR was performed on the synthesized cDNA in the TOPreal™ qPCR 2× PreMix (Enzynomics) solution in the presence of specific primers for SARS-COV-2 nucleocapsid (N), influenza A virus PB1, bovine coronavirus spike (S), porcine epidemic diarrhea coronavirus nucleocapsid (N), bovine species A rotavirus VP6, porcine reproductive and respiratory syndrome virus matrix (M), and porcine sapovirus VPg, using the LineGene 9600 Plus Real-time PCR detection system (Bioer, Hangzhou, China).
To analyze the inhibitory effects of atglistatin and CAY10499 on the production of progenies of the viruses, the supernatant obtained after three cycles of freezing and thawing was serially ten-fold diluted. […] After adsorption, each well was washed twice with phosphate-buffered saline (pH 7.4), followed by the addition of the respective culture media.
Then, after removal of the supernatants, the cells were fixed with 4% paraformaldehyde for 15 minutes and each well was washed thrice with phosphate-buffered saline and treated with 0.2% Triton X-100 at 20° C. for 10 minutes.
After three washes with phosphate-buffered saline, the wells were treated with 100- to 200-fold diluted primary antibodies to the spike protein of SARS-COV-2, the nucleoprotein protein of influenza A virus, the spike protein of bovine coronavirus, the nucleocapsid protein of porcine epidemic diarrhea coronavirus, the VP6 protein of bovine species A rotavirus, the matrix protein of porcine reproductive and respiratory syndrome virus, and the VPg protein of porcine sapovirus, respectively, and applied to a refrigerator at 4° C. for 12 hours.
Subsequently, the supernatant was removed, and each well was washed thrice with phosphate-buffered saline, followed by incubation with a 100- to 200-fold dilution of a secondary antibody conjugated with Alexa Fluor 488 or fluorescein isothiocyanate at room temperature for 2 hours.
Each virus was allowed to adsorb onto the cells which were then cultured in a freshly changed medium containing DABPU-EM or DABPU-DE. Thereafter, the cells were detached from the wells for subsequent experiments.

[2] = tested on: influenza A virus PR8 strain; test: Influenza A virus-infected mice treated with lipase inhibitor; assay type: in vivo, C57BL/6J mice; details: for free fatty acids and glycerol concentrations in lung tissues / progeny virus numbers in lung tissues / virus gene numbers in lung tissues: 5 mg/kg/day for 4 days, sixth day post-infection; for lung lesions, including interstitial pneumonia, and number of virus-positive cells / number of lipid droplets in bronchiolar epithelial cells / viral antigen in the bronchiolar epithelial cells: 5 mg/kg/day, vs untreated virus-inoculated group; for survival rate: 15 days observation; for survival rate, weight loss, and clinical symptoms: 0.01 to 10 mg/kg/day, dose-dependent
Description: For use in verifying the antiviral effect of lipase inhibition in animals infected with influenza A virus, 150 mg/ml of atglistatin and 150 mg/ml of CAY10499 were dissolved in DMSO. To evaluate the antiviral effect depending on the concentration, the drugs were prepared at concentrations of 1.000, 0.500, 0.100, 0.010, and 0.001 mg/ml. […] The drugs were completely dissolved by vortexing.
For evaluating the antiviral efficacy of CAY10499, mouse groups were prepared in the same manner with the exception of using CAY10499 instead of atglistatin.
Influenza A virus inoculation was carried out on anesthetized mice via an intranasal route at 1,000 PFU per mouse, following the same procedure as above. In cases where the virus was not injected, only phosphate-buffered saline was administered. Observations were made for 15 days, during which survival rates, body weight, and clinical symptoms were monitored and recorded daily. […] Drug treatment began two days after the inoculation of influenza A virus.
The survival rate, which was 100% with a 0% mortality rate on day 0 of the infection, was measured daily over 15 days, and compared with the survival rate of the virus-injected and untreated group. Statistical significance was analyzed using the Log Rank Test, with a p value of 0.05 or […] considered significant.
Each group consisted of four seven-week-old female wild-type C57BL/6J mice, acclimatized for one week, and used in the experiment at eight weeks of age.
Mice were inoculated with influenza A virus PR8 strain in the same manner as described above, and drug treatment was conducted for 4 days, starting from the second day post-infection. On the sixth day post-infection, the mice were euthanized for autopsy.
These tissues were assayed for free fatty acid levels.
To evaluate lipid droplets and influenza A virus antigen in the lung tissues, the fixed tissues were prepared into 3-μm-thick frozen sections. […] After washing, the sections were mounted with Slow-Fade Gold antifade reagent for nucleus staining.
The sections were then finely cut at 3 μm thickness, deparaffinized in xylene, and rehydrated through graded alcohols and water. […] Histological examination was then performed using an optical microscope.
Immunohistochemistry was performed for influenza A virus antigens in the lung tissue.

[3] = tested on: Influenza A virus (H1N1) (PR8)
[4] = tested on: Bovine coronavirus (KWD20); details: for SI (CC50/IC50): Bovine coronavirus (KWD20); for IC50: HRT-18G cells, MOI 0.01 ffu/cell, drug added after 18 hours, additional 18 hours
[5] = tested on: Porcine epidemic diarrhea coronavirus (QIAP1401); details: for IC50: Vero E6 cells, MOI 0.01 ffu/cell, drug added after 18 hours, additional 18 hours
[6] = tested on: Species A Rotavirus (NCDV); details: for IC50: MA104 cells, MOI 0.01 ffu/cell, drug added after 12 hours, additional 12 hours; for SI (CC50/IC50): Species A Rotavirus (NCDV)
[7] = tested on: Porcine respiratory reproductive syndrome virus (LMY); details: for IC50: MARC-145 cells, MOI 0.01 ffu/cell, drug added after 18 hours, additional 18 hours; for SI (CC50/IC50): Porcine respiratory reproductive syndrome virus (LMY)
[8] = tested on: Porcine sapovirus (Cowden); details: for IC50: LLC-PK cells, MOI 0.01 ffu/cell, drug added after 18 hours, additional 18 hours; for SI (CC50/IC50): Porcine sapovirus (Cowden)
SARS-CoV-2 (KCDC03) = test: Half-maximal viral inhibitory concentration (IC50), immunofluorescence of virus-positive cells; details: for SI (CC50/IC50): SARS-CoV-2 (KCDC03); for IC50: Vero E6 cells, MOI 0.01 ffu/cell, drug added after 18 hours, additional 18 hours
[9] = tested on: SARS-COV-2 strain KCDC03, KDCA51463, or KDCA55905; test: Proliferation of SARS-CoV-2 in various cultured cells; assay type: cell-based; details: Vero E6, Caco-2, Calu-3 cells (FIGS. 21a to 21f); vs solvent (vehicle)
[10] = tested on: influenza A virus PR8 strain; test: Proliferation of influenza A virus in MRC-5, NCI-H293, WI-38, and Calu-3 cells; assay type: cell-based; details: MRC-5, NCI-H293, WI-38, Calu-3 cells; 1, 10, 20 μM; vs solvent (vehicle)
[11] = tested on: porcine sapovirus Cowden strain; test: Viral antigen expression (Western blot, immunofluorescence) in infected LLC-PK cells; assay type: cell-based; details: porcine sapovirus VPg protein, 1, 10, 20 μM
[12] = 10 mg kg^−1 day^−1 intraperitoneally for four days from day 2 post infection, control 100% mortality
[13] = 5 mg kg^−1 day^−1 intraperitoneally for four days from day 2 post infection
[14] = Porcine epidemic diarrhea coronavirus (QIAP1401)

## COc1nn(-c2ccc(NC(=O)OCc3ccccc3)c(C)c2)c(=O)o1 [CAY10499]
[1]
  copies of genomes of each virus: reduced
  production of progenies of each virus: reduced
[2]
  free fatty acids and glycerol concentrations in lung tissues: significant decrease
  progeny virus numbers in lung tissues: significant decrease
  virus gene numbers in lung tissues: significant decrease
  lung lesions, including interstitial pneumonia, and number of virus-positive cells: alleviation and reduction
  number of lipid droplets in bronchiolar epithelial cells: did not decrease significantly
  viral antigen in the bronchiolar epithelial cells: significant reduction
  survival rate, weight loss, and clinical symptoms: improvement
[2]; [12]
  survival rate: 50%
[3]
  IC50: 4130 nM
  SI (CC50/IC50): 27
[4]
  SI (CC50/IC50): 11
  IC50: 7300 nM
[5]
  SI (CC50/IC50): 30
  IC50: 3190 nM
[6]
  IC50: 20800 nM
  SI (CC50/IC50): 4
[7]
  IC50: 4210 nM
  SI (CC50/IC50): 21
[8]
  IC50: 11800 nM
  SI (CC50/IC50): 8
SARS-CoV-2 (KCDC03)
  SI (CC50/IC50): 62
  IC50: 1540 nM

## CN(C)C(=O)Nc1cccc(-c2ccc(N(C)C)cc2)c1 [Atglistatin, 3-(4′-(dimethylamino)-(1,1′-biphenyl)-3-yl)-1,1-dimethylurea]
[1]
  copies of genomes of each virus: reduced
  production of progenies of each virus: reduced
[2]; [13]
  survival rate: 62.5%
[2]
  free fatty acids and glycerol concentrations in lung tissues: significant decrease
  progeny virus numbers in lung tissues: significant decrease
  virus gene numbers in lung tissues: significant decrease
  lung lesions, including interstitial pneumonia, and number of virus-positive cells: alleviation and reduction
  number of lipid droplets in bronchiolar epithelial cells: did not decrease significantly
  viral antigen in the bronchiolar epithelial cells: significant reduction
  survival rate, weight loss, and clinical symptoms: improvement
[2]; [12]
  survival rate: 60% and 62.5%
[9]
  number of viral genome copies: significantly reduced
[10]
  progeny virus number: significantly reduced
  viral genome copy number: significantly reduced
[3]; Influenza A virus (H1N1) (PR8)
  SI (CC50/IC50): 251
[4]
  SI (CC50/IC50): 152
[5]; [14]
  SI (CC50/IC50): 116
[6]
  SI (CC50/IC50): 32
[7]
  SI (CC50/IC50): 84
[8]
  SI (CC50/IC50): 72
SARS-CoV-2 (KCDC03)
  SI (CC50/IC50): 154
  IC50: 1470 nM

## CCN(C)C(=O)Nc1cccc(-c2ccc(N(C)C)cc2)c1 [DABPU-EM, 3-(4′-(dimethylamino)-(1,1′-biphenyl)-3-yl)-1-ethyl-1-methylurea]
[1]
  copies of genomes of each virus: reduced
  production of progenies of each virus: reduced
[11]
  expression levels of the viral antigen in infected cells: inhibitory activity
[2]
  free fatty acids and glycerol concentrations in lung tissues: significantly reduced
  progeny virus numbers in lung tissues: significantly reduced
  virus gene numbers in lung tissues: significantly reduced
  lung lesions, including interstitial pneumonia, and number of virus-positive cells: alleviation and reduction
  number of lipid droplets in bronchiolar epithelial cells: no significant decrease
  viral antigen in the bronchiolar epithelial cells: significantly decreasing
  survival rate, weight loss, and clinical symptoms: improvement
[2]; [12]
  survival rate: 50%
[9]
  number of viral genome copies: significantly reduced
[10]
  progeny virus number: significantly reduced
  viral genome copy number: significantly reduced
[3]; Influenza A virus (H1N1) (PR8)
  SI (CC50/IC50): 127
[4]
  SI (CC50/IC50): 54
[5]; [14]
  SI (CC50/IC50): 108
[6]
  SI (CC50/IC50): 32
[7]
  SI (CC50/IC50): 78
[8]
  SI (CC50/IC50): 62
SARS-CoV-2 (KCDC03)
  SI (CC50/IC50): 122
  IC50: 1710 nM

## CCN(CC)C(=O)Nc1cccc(-c2ccc(N(C)C)cc2)c1 [DABPU-DE]
[1]
  copies of genomes of each virus: reduced
  production of progenies of each virus: reduced
[11]
  expression levels of the viral antigen in infected cells: higher inhibitory effects of DABPU-DE than DABPU-EM
[2]; [13]
  survival rate: 68.8%
[2]
  free fatty acids and glycerol concentrations in lung tissues: significantly reduced
  progeny virus numbers in lung tissues: significantly reduced
  virus gene numbers in lung tissues: significantly reduced
  lung lesions, including interstitial pneumonia, and number of virus-positive cells: alleviation and reduction
  number of lipid droplets in bronchiolar epithelial cells: no significant decrease
  viral antigen in the bronchiolar epithelial cells: significantly decreasing
  survival rate, weight loss, and clinical symptoms: improvement
[2]; [12]
  survival rate: 68.8%
[9]
  number of viral genome copies: significantly reduced
[10]
  progeny virus number: significantly reduced
  viral genome copy number: significantly reduced
[3]; Influenza A virus (H1N1) (PR8)
  SI (CC50/IC50): 207
[3]; […], drug added after 12 hours, additional 12 hours
  IC50: 1030 nM
[4]
  SI (CC50/IC50): 158
  IC50: 1120 nM
[5]; [14]
  SI (CC50/IC50): 128
[5]
  IC50: 1620 nM
[6]
  IC50: 5220 nM
  SI (CC50/IC50): 36
[7]
  IC50: 2290 nM
  SI (CC50/IC50): 95
[8]
  IC50: 2770 nM
  SI (CC50/IC50): 81
SARS-CoV-2 (KCDC03)
  SI (CC50/IC50): 185
  IC50: 1200 nM
